Data published in patent US4542137A, “Alkylaminodesoxy-1.4;3.6-dianhydrohexitol nitrates substituted by purine bases and pharmaceutical compositions” (priority 1980, dated 1985).

System: mongrel dogs
Test: circulatory pharmacological effectiveness on narcotised dogs, intravenous
Format: in vivo, dog
[1] = dog i.v. ISDN/9c 1, 1d 0.5 mg/kg, 40 min
[2] = dog i.v. ISDN/9c 1, 1d 0.5 mg/kg, 50 min
[3] = dog i.v. ISDN/9c 1, 1d 0.5 mg/kg, 60 min
[4] = dog i.v. ISDN/9c 1, 1d 0.5 mg/kg, 90 min
[5] = dog i.v. ISDN/9c 1, 1d 0.5 mg/kg, 120 min
[6] = dog i.v. ISDN/9c 1, 1d 0.5 mg/kg, 150 min
[7] = dog i.v. ISDN/9c 1, 1d 0.5 mg/kg, 180 min
[8] = dog i.v., before administration (v)

`Cn1c(=O)c2c(ncn2CCCN[C@H]2CO[C@H]3[C@@H]2OC[C@@H]3O[N+](=O)[O-])n(C)c1=O` [Example 1d, 5-(3-Theophyllin-7-ylpropyl)-amino-5-desoxy-1.4;3.6-dianhydro-L-iditol 2-nitrate] was tested, and the “BFFem: blood flow in the A. femoralis referred to 20 kg body weight” value (shortened to “BFFem: blood flow”) [1] was 58.5 mL/min, the “HF: heart frequency” value [1] was 97.5 and the “HLL: heart capacity left, referred to 20 kg body weight” value (“HLL: heart capacity left, referred” below) [1] was 0.43 W. The “HLR: heart capacity right, referred to 20 kg body weight” value (from here on “HLR: heart capacity right, referred”) [1] was 50.8 mW, the “HZV: heart minute volume, referred to 20 kg body weight” value (“HZV: heart minute volume, referred” below) [1] was 2.05 L/min and the “SV: beat volume, referred to 20 kg body weight” value (from here on “SV: beat volume, referred”) [1] was 21.5 mL. The “WAP: pulmonalis resistance, referred to 20 kg body weight” value (from here on “WAP: pulmonalis resistance, referred”) [1] was 0.50 U, the “WFem: moralis resistance, referred to 20 kg body weight” value (“WFem: moralis resistance, referred” for short) [1] was 0.25 KU and the “WTP: total peripheral resistance, referred to 20 kg body weight” value (shortened to “WTP: total peripheral resistance”) [1] was 6.62 U. The “dp/dt: rate of pressure increase in the left ventricle” value (“dp/dt: rate of pressure increase” below) [1] was 2193.7 mm.Hg/sec, the “APdiast: diastolic aorta pressure” value [2] was 85.9 mm.Hg and the “APsyst: systolic aorta pressure” value [2] was 135.9 mm.Hg. The “BFFem: blood flow” value [2] was 62.2 mL/min, the “HF: heart frequency” value [2] was 96.2 and the “HLL: heart capacity left, referred” value [2] was 0.41 W. For the same molecule, the “HLR: heart capacity right, referred” value [2] was 47.3 mW, the “HZV: heart minute volume, referred” value [2] was 1.93 L/min and the “SV: beat volume, referred” value [2] was 20.5 mL. For the same molecule, the “WAP: pulmonalis resistance, referred” value [2] was 0.50 U, the “WFem: moralis resistance, referred” value [2] was 0.25 KU and the “WTP: total peripheral resistance” value [2] was 7.24 U. The “dp/dt: rate of pressure increase” value [2] was 2006.2 mm.Hg/sec, the “APdiast: diastolic aorta pressure” value [3] was 88.5 mm.Hg and the “APsyst: systolic aorta pressure” value [3] was 136.8 mm.Hg. For the same molecule, the “BFFem: blood flow” value [3] was 62.6 mL/min, the “HF: heart frequency” value [3] was 95.5 and the “HLL: heart capacity left, referred” value [3] was 0.39 W. The “HLR: heart capacity right, referred” value [3] was 46.0 mW, the “HZV: heart minute volume, referred” value [3] was 1.82 L/min and the “LVEDP: end diastolic pressure in the left ventricle” value (from here on “LVEDP: end diastolic pressure”) [3] was 8.06 mm.Hg. For the same molecule, the “SV: beat volume, referred” value [3] was 19.4 mL, the “WAP: pulmonalis resistance, referred” value [3] was 0.46 U and the “WFem: moralis resistance, referred” value [3] was 0.26 KU. The “WTP: total peripheral resistance” value [3] was 7.90 U, the “dp/dt: rate of pressure increase” value [3] was 1968.7 mm.Hg/sec and the “APdiast: diastolic aorta pressure” value [4] was 92.8 mm.Hg. For the same molecule, the “APsyst: systolic aorta pressure” value [4] was 137.8 mm.Hg, the “BFFem: blood flow” value [4] was 57.4 mL/min and the “HF: heart frequency” value [4] was 92.5. The “HLL: heart capacity left, referred” value [4] was 0.34 W, the “HLR: heart capacity right, referred” value [4] was 36.7 mW and the “HZV: heart minute volume, referred” value [4] was 1.57 L/min. For the same molecule, the “LVEDP: end diastolic pressure” value [4] was 9.47 mm.Hg, the “SV: beat volume, referred” value [4] was 17.4 mL and the “WAP: pulmonalis resistance, referred” value [4] was 0.39 U. For the same molecule, the “WFem: moralis resistance, referred” value [4] was 0.29 KU, the “WTP: total peripheral resistance” value [4] was 9.39 U and the “dp/dt: rate of pressure increase” value [4] was 1743.7 mm.Hg/sec. The “APdiast: diastolic aorta pressure” value [5] was 95.2 mm.Hg, the “APsyst: systolic aorta pressure” value [5] was 139.7 mm.Hg and the “BFFem: blood flow” value [5] was 49.9 mL/min. The “HF: heart frequency” value [5] was 96.5, the “HLL: heart capacity left, referred” value [5] was 0.35 W and the “HLR: heart capacity right, referred” value [5] was 34.9 mW. The “HZV: heart minute volume, referred” value [5] was 1.57 L/min, the “LVEDP: end diastolic pressure” value [5] was 9.47 mm.Hg and the “SV: beat volume, referred” value [5] was 17.0 mL. For the same molecule, the “WAP: pulmonalis resistance, referred” value [5] was 0.35 U, the “WFem: moralis resistance, referred” value [5] was 0.36 KU and the “WTP: total peripheral resistance” value [5] was 9.56 U. For the same molecule, the “dp/dt: rate of pressure increase” value [5] was 1659.4 mm.Hg/sec, the “APdiast: diastolic aorta pressure” value [6] was 92.8 mm.Hg and the “APsyst: systolic aorta pressure” value [6] was 139.7 mm.Hg. For the same molecule, the “BFFem: blood flow” value [6] was 49.5 mL/min, the “HF: heart frequency” value [6] was 104.5 and the “HLL: heart capacity left, referred” value [6] was 0.35 W. The “HLR: heart capacity right, referred” value [6] was 36.9 mW, the “HZV: heart minute volume, referred” value [6] was 1.61 L/min and the “LVEDP: end diastolic pressure” value [6] was 10.12 mm.Hg. For the same molecule, the “SV: beat volume, referred” value [6] was 15.9 mL, the “WAP: pulmonalis resistance, referred” value [6] was 0.37 U and the “WFem: moralis resistance, referred” value [6] was 0.37 KU. For the same molecule, the “WTP: total peripheral resistance” value [6] was 8.10 U, the “dp/dt: rate of pressure increase” value [6] was 1640.6 mm.Hg/sec and the “APdiast: diastolic aorta pressure” value [7] was 90.9 mm.Hg. The “APsyst: systolic aorta pressure” value [7] was 137.8 mm.Hg, the “BFFem: blood flow” value [7] was 50.9 mL/min and the “HF: heart frequency” value [7] was 114.0. For the same molecule, the “HLL: heart capacity left, referred” value [7] was 0.37 W, the “HLR: heart capacity right, referred” value [7] was 38.3 mW and the “HZV: heart minute volume, referred” value [7] was 1.73 L/min. For the same molecule, the “LVEDP: end diastolic pressure” value [7] was 10.5 mm.Hg, the “SV: beat volume, referred” value [7] was 15.5 mL and the “WAP: pulmonalis resistance, referred” value [7] was 0.32 U. For the same molecule, the “WFem: moralis resistance, referred” value [7] was 0.32 KU, the “WTP: total peripheral resistance” value [7] was 8.13 U and the “dp/dt: rate of pressure increase” value [7] was 1621.9 mm.Hg/sec. The “APdiast: diastolic aorta pressure” value [8] was 76.9 mm.Hg, the “APsyst: systolic aorta pressure” value [8] was 152.8 mm.Hg and the “BFFem: blood flow” value [8] was 51.5 mL/min. The “HF: heart frequency” value [8] was 101.2, the “HLL: heart capacity left, referred” value [8] was 0.50 W and the “HLR: heart capacity right, referred” value [8] was 67.1 mW. The “HZV: heart minute volume, referred” value [8] was 2.35 L/min, the “LVEDP: end diastolic pressure” value [8] was 7.50 mm.Hg and the “PAP: average pressure in the A. pulmonalis” value [8] was 15.59 mm.Hg. For the same molecule, the “SV: beat volume, referred” value [8] was 23.4 mL, the “WAP: pulmonalis resistance, referred” value [8] was 0.46 U and the “WFem: moralis resistance, referred” value [8] was 0.29 KU. For the same molecule, the “WTP: total peripheral resistance” value [8] was 5.78 U, the “dp/dt: rate of pressure increase” value [8] was 1903.1 mm.Hg/sec and the “PRV: pressure in the right atrium” value (dog, in vivo, iv) was 3.09. The “HF: heart frequency” value (iv, 0.5 mg/kg) was 103.7 and the “dp/dt: rate of pressure increase” value (iv, 0.5 mg/kg) was 2306.2 mm.Hg/sec.
